Assay results published in ChEMBL document CHEMBL1201862, “PubChem BioAssay data set” (2004).
Structures can show the parent of a compound that is named as a salt.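 Protocol summary: plate cells (96-well), add compound at 5 concentrations, incubate 48 h, interpolate endpoints linearly. GI50 = concentration required for 50% inhibition of growth.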 Calls of active or inactive are those of the source. Cut-off read from the data, not from the text of the source: active = GI50 up to about 1.1 µM and inactive = higher.

Columns and labels:
Experiment in all cases: growth of human tumour cells (NCI), 48 h
[1] = system: NCI-H522
[2] = system: TK-10
[3] = system: UO-31
[4] = system: NCI-H226
[5] = system: Hs-578T
[6] = system: MCF7
[7] = system: A498
[8] = system: OVCAR-3
[9] = system: M14
[10] = system: DU-145
[11] = system: MDA-N
[12] = system: CAKI-1
[13] = system: BT-549
[14] = system: HCC 2998
[15] = system: HL-60
[16] = system: SK-MEL-28
[17] = system: PC-3
[18] = system: SK-OV-3
[19] = system: UACC-257
[20] = system: NCI-H460
[21] = system: SN12C
[22] = system: KM12
[23] = system: MOLT-4
[24] = system: U-251
[25] = system: LOX IMVI
[26] = system: SF-295
[27] = system: UACC-62
[28] = system: EKVX
[29] = system: COLO 205
[30] = system: RPMI-8226
[31] = system: OVCAR-5
[32] = system: RXF 393
[33] = system: NCI-H23
[34] = system: ACHN
[35] = system: OVCAR-4
[36] = system: HOP-62
[37] = system: SF-539
[38] = system: HT-29
[39] = system: SK-MEL-5
[40] = system: HCT-15
[41] = system: 786-0
[42] = system: SNB-19
[43] = system: SR
[44] = system: Malme-3M
[45] = system: K562
[46] = system: MDA-MB-231
[47] = system: SW-620
[48] = system: CCRF-CEM
[49] = system: HCT-116
[50] = system: HOP-92
[51] = system: SNB-75
[52] = system: T47D
[53] = system: NCI/ADR-RES
[54] = system: A549
[55] = system: MDA-MB-435
[56] = system: SK-MEL-2
[57] = system: SF-268
[58] = system: IGROV-1
[59] = system: OVCAR-8

In the case of `CC[C@@H]1C(=O)OC[C@@H]1Cc1cncn1C` [PILOCARPINE HYDROCHLORIDE], the GI50 [1] is reported as > 100 µM (inactive), the GI50 [2] is reported as > 100 µM (inactive) and the GI50 [3] is reported as > 100 µM (inactive). The GI50 [4] was > 100 µM (inactive), the GI50 [5] was > 100 µM (inactive) and the GI50 [6] was > 100 µM (inactive). The GI50 [7] was > 100 µM (inactive), the GI50 [8] was > 100 µM (inactive) and the GI50 [9] was > 100 µM (inactive). The GI50 [10] was > 100 µM (inactive), the GI50 [11] was > 100 µM (inactive) and the GI50 [12] was > 100 µM (inactive). The GI50 [13] was > 100 µM (inactive), the GI50 [14] was > 100 µM (inactive) and the GI50 [15] was > 100 µM (inactive). The GI50 [16] was > 100 µM (inactive), the GI50 [17] was > 100 µM (inactive) and the GI50 [18] was > 100 µM (inactive). For the same molecule, the GI50 [19] was > 100 µM (inactive), the GI50 [20] was > 100 µM (inactive) and the GI50 [21] was > 100 µM (inactive). For the same molecule, the GI50 [22] was > 100 µM (inactive), the GI50 [23] was > 100 µM (inactive) and the GI50 [24] was > 100 µM (inactive). The GI50 [25] was > 100 µM (inactive), the GI50 [26] was > 100 µM (inactive) and the GI50 [27] was > 100 µM (inactive). The GI50 [28] was > 100 µM (inactive), the GI50 [29] was > 100 µM (inactive) and the GI50 [30] was > 100 µM (inactive). The GI50 [31] was > 100 µM (inactive), the GI50 [32] was > 100 µM (inactive) and the GI50 [33] was > 100 µM (inactive). The GI50 [34] was > 100 µM (inactive), the GI50 [35] was > 100 µM (inactive) and the GI50 [36] was > 100 µM (inactive). For the same molecule, the GI50 [37] was > 100 µM (inactive), the GI50 [38] was > 100 µM (inactive) and the GI50 [39] was > 100 µM (inactive). The GI50 [40] was > 100 µM, the GI50 [41] was > 100 µM (inactive) and the GI50 [42] was > 100 µM (inactive). The GI50 [43] was > 100 µM (inactive), the GI50 [44] was > 100 µM (inactive) and the GI50 [45] was > 100 µM (inactive). The GI50 [46] was > 100 µM (inactive), the GI50 [47] was > 100 µM (inactive) and the GI50 [48] was > 100 µM (inactive). For the same molecule, the GI50 [49] was > 100 µM (inactive), the GI50 [50] was > 100 µM (inactive) and the GI50 [51] was > 100 µM (inactive). For the same molecule, the GI50 [52] was > 100 µM (inactive), the GI50 [53] was > 100 µM (inactive) and the GI50 [54] was > 100 µM (inactive). The GI50 [55] was > 100 µM (inactive), the GI50 [56] was > 100 µM (inactive) and the GI50 [57] was > 100 µM (inactive). The GI50 [58] was > 100 µM (inactive) and the GI50 [59] was > 100 µM (inactive).
